The record followed here is patent US6004957A, “Sulfonamide inhibitors of aspartyl protease” (Vertex Pharmaceuticals, Incorporated, priority 1998, dated 1999).

The assay relates to HIVIIIb in CCRM-CEM cells. Description: Anti-viral potency in CCRM-CEM cells acutely infected with HIVIIIb (method of Meek et al.), extracellular p24 antigen. Particulars: Human immunodeficiency virus 1, HIV replication, Table VIII, read-out: IC90 Range. The format is cell-based, HIV-1. An excerpt:
As discussed above, the novel compounds of the present invention are excellent ligands for aspartyl proteases, particularly HIV-1 and HIV-2 proteases. Accordingly, these compounds are capable of targeting and inhibiting late stage events in HIV replication, i.e., the processing of the viral polyproteins by HIV encoded proteases. […] Because aspartyl protease is essential for the production of mature virions, inhibition of that processing effectively blocks the spread of virus by inhibiting the production of infectious virions, particularly from chronically infected cells. […] Other anti-viral assays have confirmed the potency of these compounds.
Compounds of formula I were tested for their antiviral potency in several virological assays. In the first assay, the compounds were added as a solution in dimethylsulfoxide (DMSO) to a test cell culture of CCRM-CEM cells, a strain of CD4^+ human T-cell lymphoma cells, previously acutely infected with HIVIIIb using standard protocols (see Meek, T. D. et al., "Inhibition of HIV-1 protease in infected T-lymphocytes by synthetic peptide analogues", Nature, 343, p. 90 (1990). Preferred compounds are those which are able to inhibit 90% of viral infectivity at a concentration of 1 μM or less. More preferred compounds are those which are able to inhibit 90% of viral infectivity at a concentration of 100 nM or less.
The effect of the compounds on inhibiting the replication of the virus was measured by determining the HIV extracellular p24 antigen concentration using a commercial enzyme immunoassay (obtained from Coulter Corporation, Hialeah, Fla.).
In general, IC90 refers to the concentration at which the effect reaches the 90% level. For the compound `CC(C)CN(C[C@@H](O)[C@H](Cc1ccccc1)NC(=O)OC[C@@H]1COC(=O)N1)S(=O)(=O)c1ccc(F)cc1` [Compound 109, 4-Fluoro-N-(2-(syn)-hydroxy-3-((2-oxazolidon-(S)-4-yl)-methoxycarbonylamino)-4-(S)-phenyl-butyl)-N-isobutyl-benzenesulfonamide], the IC90 was in the range of 0.101 to 1 µM.

As to `O=C(N[C@@H](Cc1ccccc1)[C@H](O)CN(CC1CCCC1)S(=O)(=O)c1ccc(Cl)cc1)O[C@H]1CCOC1` [Compound 116, 4-Chloro-N-cyclopentylmethyl-N-((2 syn,3S)-2-hydroxy-4-phenyl-3-((S)-tetrahydrofuran-3-yloxycarbonylamino)-butyl)-benzenesulfonamide], the IC90 is less than 0.1 µM.

With `CC(=O)Nc1ccc(S(=O)(=O)N(CC2CCCC2)C[C@@H](O)[C@H](Cc2ccccc2)NC(=O)O[C@H]2CCOC2)cc1` [Compound 125, N-(4-(Cyclopentylmethyl-((2 syn,3S)-2-hydroxy-4-phenyl-3-((S)-tetrahydrofuran-3-yloxycarbonylamino)-butyl)-sulfamoyl)-phenyl)-acetamide], the IC90 lay in the range of 0.101 to 1 µM.

On to `O=C(N[C@@H](Cc1ccccc1)[C@H](O)CN(CC1CCCC1)S(=O)(=O)c1ccc(F)cc1)O[C@H]1CCOC1` [Compound 182, N-Cyclopentylmethyl-4-fluoro-N-((2 syn,3S)-2-hydroxy-4-phenyl-3-((S)-tetrahydrofuran-3-yloxycarbonylamino)-butyl)-benzenesulfonamide], for which the IC90 was 0.101 to 1 µM.

In the case of `CC(C)CN(C[C@@H](O)[C@H](Cc1ccccc1)NC(=O)O[C@H]1CCOC1)S(=O)(=O)c1ccc(O)cc1` [Compound 175], the IC90 is less than 0.1 µM.

Consider `O=C(N[C@@H](Cc1ccccc1)[C@H](O)CN(CC1CCCCC1)S(=O)(=O)c1ccc(F)cc1)O[C@H]1CCOC1` [Compound 159, N-Cyclohexylmethyl-4-fluoro-N-((2 syn,3S)-2-hydroxy-4-phenyl-3-((S)-tetrahydrofuran-3-yloxycarbonylamino)-butyl)-benzenesulfonamide], for which the IC90 lay within 0.101 to 1 µM.

Take `CC(C)CN(C[C@@H](O)[C@H](Cc1ccccc1)NC(=O)OC(C)(C)C)S(=O)(=O)c1ccc(F)cc1` [Compound 32]: the IC90 lay within 1 to 10 µM.

In the case of `C=C(C)COC(=O)N[C@@H](Cc1ccccc1)[C@H](O)CN(CC(C)C)S(=O)(=O)c1ccc(F)cc1` [Compound 107], the IC90 was in the range of 1 to 10 µM.

`NC(=O)C[C@H](NC(=O)c1ccc2ccccc2n1)C(=O)N[C@@H](Cc1ccccc1)[C@H](O)CN(Cc1ccccc1)S(=O)(=O)c1ccc(-c2ccon2)s1` [Compound 6, (S)-N-1-(1-Benzyl-3-(benzyl-(5-isoxazol-3-yl-thiophene-2-sulfonyl)-amino)-(1S,2 syn)-1-benzyl-2-hydroxy-propyl)-2-((quinoline-2-carbonyl)-amino)-succinamide]: the IC90 fell in the range of 0.101 to 1 µM.

As for `O=C(N[C@@H](Cc1ccccc1)[C@H](O)CN(CC1CCCC1)S(=O)(=O)c1ccc(OC(F)(F)F)cc1)O[C@H]1CCOC1` [Compound 151], the IC90 fell in the range of 1 to 10 µM.

As to `CC(C)CN(C[C@@H](O)[C@H](Cc1ccccc1)NC(=O)O[C@H]1CCOC1)S(=O)(=O)c1cccc2nonc12` [Compound 60], the 90% effect concentration (IC90) fell in the range of 1 to 10 µM.

As to `COc1ccc(S(=O)(=O)N(CC2CCCC2)C[C@@H](O)[C@H](Cc2ccccc2)NC(=O)O[C@H]2CCOC2)cc1` [Compound 140, N-cyclopentylmethyl-N-((2 syn,3S)-2-hydroxy-4-phenyl-3-((S)-tetrahydrofuran-3-yloxycarbonylamino)-butyl)-4-methoxy-benzenesulfonamide], the IC90 is less than 0.1 µM.

With `CC(=O)Nc1cccc(S(=O)(=O)N(CC(C)C)C[C@@H](O)[C@H](Cc2ccccc2)NC(=O)O[C@H]2CCOC2)c1` [Compound 91, N-(3-(((2 syn,3S)-2-Hydroxy-4-phenyl-3-((S)-tetrahydrofuran-3-yloxycarbonylamino)-butyl)-isobutyl-sulfamoyl)-phenyl)-acetamide], the concentration for an effect of 90% (IC90) lay within 0.101 to 1 µM.

For the compound `O=C1N[C@H](COC(=O)N[C@@H](Cc2ccccc2)[C@H](O)CN(CC2CCCC2)S(=O)(=O)c2ccc(Cl)cc2)CO1` [Compound 139, 4Chloro-N-cyclopentylmethyl-N-(2-(syn)-hydroxy-3-((2-oxazolidon-4-(S)-yl-methyl)-oxycarbonylamino)-4-phenyl-butyl)-benzenesulfonamide], the IC90 lay in the range of 0.101 to 1 µM.

For `COc1ccc(S(=O)(=O)N(CC2CCCCC2)C[C@@H](O)[C@H](Cc2ccccc2)NC(=O)O[C@H]2CCOC2)cc1` [Compound 158, N-Cyclohexylmethyl-N-((2 syn,3S)-2-hydroxy-4-phenyl-3-((S)-tetrahydrofuran-3-yloxycarbonylamino)-butyl)-4-methoxy-benzenesulfonamide], the IC90 is less than 0.1 µM.

Turning to `COc1ccc(S(=O)(=O)N(CC2CCCC2)C[C@@H](O)[C@H](Cc2ccccc2)NC(=O)OCc2cccnc2)cc1` [Compound 142], the IC90 is less than 0.1 µM.

Regarding `NC(=O)C[C@H](NC(=O)c1ccc2ccccc2n1)C(=O)N[C@@H](Cc1ccccc1)[C@H](O)CN(Cc1ccccc1)S(=O)(=O)c1cccc(S(N)(=O)=O)c1` [Compound 10, N-1-(1-(S)-Benzyl-3-(benzyl-(3-sulfamoyl-benzenesulfonyl)-amino)-2-(syn)-hydroxy-propyl)-2-((quinoline-2-carbonyl)-amino)-succinamide], the concentration for an effect of 90% (IC90) lay within 0.101 to 1 µM.

On to `O=C(N[C@@H](Cc1ccccc1)[C@H](O)CN(CC1CCCC1)S(=O)(=O)c1ccc(O)cc1)O[C@H]1CCOC1` [Compound 169, N-Cyclopentylmethyl-4-hydroxy-N-((2 syn,3S)-2-hydroxy-4-phenyl-3-((S)-tetrahydrofuran-3-yloxycarbonylamino)-butyl)-benzenesulfonamide], for which the IC90 is less than 0.1 µM.

Turning to `CC(=O)Nc1ccc(S(=O)(=O)N(CC(C)C)C[C@@H](O)[C@H](Cc2ccccc2)NC(=O)[C@@H](NC(=O)OCc2ccccn2)C(C)C)cc1` [Compound 22], the 90% effect concentration (IC90) was in the range of 0.101 to 1 µM.

Take `CCOC(=O)N[C@@H](Cc1ccccc1)[C@H](O)CN(CC(C)C)S(=O)(=O)c1ccc(Cl)c(Cl)c1` [Compound 119]: the IC90 lay within 1 to 10 µM.

Regarding `CC(C)CN(C[C@@H](O)[C@H](Cc1ccccc1)NC(=O)O[C@@H]1CCOC1)S(=O)(=O)c1ccc(F)cc1` [Compound 93, 4-Fluoro-N-((2 syn,3S)-2-hydroxy-4-phenyl-3-((R)-tetrahydrofuran-3-yloxycarbonylamino)-butyl)-N-isobutyl-benzenesulfonamide], the concentration for an effect of 90% (IC90) fell in the range of 0.101 to 1 µM.

In the case of `CCCOC(=O)N[C@@H](Cc1ccccc1)[C@H](O)CN(CC(C)C)S(=O)(=O)c1ccc(Cl)c(Cl)c1` [Compound 89], the IC90 fell in the range of 1 to 10 µM.

Regarding `C=CCOC(=O)N[C@@H](Cc1ccccc1)[C@H](O)CN(CC(C)C)S(=O)(=O)c1ccc(Cl)c(Cl)c1` [Compound 81], the IC90 lay within 1 to 10 µM.

As for `CC(C)CN(C[C@@H](O)[C@H](Cc1ccccc1)NC(=O)OC(C)(C)C)S(=O)(=O)c1ccc(F)cc1F` [Compound 49], the IC90 lay in the range of 1 to 10 µM.

For the compound `COc1ccc(S(=O)(=O)N(CC2CCCC2)C[C@@H](O)[C@H](CC2CCCCC2)NC(=O)O[C@H]2CCOC2)cc1` [Compound 195, N-((2 syn,3S)-4-Cyclohexyl-2-hydroxy-3-((S)-tetrahydrofuran-3-yloxycarbonylamino)-butyl)-N-cyclopentylmethyl-4-methoxy-benzenesulfonamide], the IC90 is less than 0.1 µM.
